The results in this text go back to patent US20180050034A1, “ANTIFUNGAL TREATMENT OF CROHN'S DISEASE” (Gerbe Labs Inc., priority 2016, published 2018).

What all share (assay type): cell-based
The test system of assay [1] is Co-cultivation of A. fumigatus + C. albicans (MYA3626 + ATCC 90028). Put plainly: Broth microdilution MIC assay against co-culture of fungal spores. Particulars: Aspergillus fumigatus + Candida albicans co-culture; repeated MIC study (Table 4), agent alone; listed as Itraconazone. The procedure:
Broth Microdilution Minimal Inhibitory Concentration (MIC) assays were performed to obtain the MIC values for Itraconazole and Ketoconazole with an antibiotic (Vancomycin or Tobramycin or Amikacin) against the two fungal strains.
The strains were maintained as a frozen glycerol stocks at −80° C. The fungal strains were prepared by thawing a glycerol stock, streaking and growing onto Sabouraud's Dextrose Agar (SDA) plates, overnight at 35±2° C. in aerobic conditions and used for the assay.
Antifungal agents: Itraconazole (Cat #16657, Lot #087K1322), Ketoconazole (Cat # K1003, Lot # SLBR1290V). Stocks were prepared in appropriate solvents following the CLSI guidelines. See, for example, Reference method for broth dilution antifungal susceptibility testing of filamentous fungi, approved standard, 2nd ed. CLSI document M38-A2, vol. 28. CLSI, Wayne, Pa. (2008).
The completely synthetic medium RPMI-1640 (with glutamine, without bicarbonate, and with phenol red as a pH indicator) was buffered with 0.165 mol/L MOPS (3-[N-morpholino] propanesulfonic acid) buffer was used as the growth medium for the fungal strains. Overnight cultures of the fungal strains were grown on Difco™ Sabouraud's Dextrose Agar (SDA) plates at 35° C. To induce conidium and sporangiospore formation, the culture plates were transferred to incubator and grown for 5-7 days 30° C. or until good sporulation was obtained. […]

Assay [2] has as its system Aspergillus fumigatus+Candida albicans co-culture. Nature of the assay: Checkerboard synergy assay, co-culture (FIG. 7, Table 4). Particulars: combination of Aspergillus fumigatus and Candida albicans; read-out: MIC (agent alone, read from checkerboard FIG. 7). The procedure:
This study evaluated the synergistic activity of 2 antifungal agents (Itraconazole and Ketoconazole) with an antibiotic (Vancomycin or Tobramycin or Amikacin) against the spores of 2 fungi; Aspergillus fumigatus MYA3626 and Candida albicans ATCC 90028; individually as well as in co-cultivation (Aspergillus fumigatus+Candida albicans). Synergy testing was carried out as per checkerboard assay by Victor Lorian methodology. See, for example, Lorian, V. Antibiotics in Laboratory Medicine. Edition 5: (2005).
In vitro activity of the test articles were tested in combination by the Checkerboard assay. See, for example, Lorian, V. Antibiotics in Laboratory Medicine. Edition 5: (2005). The assay was carried out in duplicates. The starting concentrations for the test articles was determined as per the MIC data. Two-fold serial dilutions of 8×MIC for the antifungal agents; Itraconazole and Ketoconazole was performed separately. When Itraconazole and Ketoconazole were combined in a microtiter plate, the concentration of both agents was 2×MIC. […] The plates were incubated at 35° C. for 3-5 days. The assay plates were visually inspected to confirm the MIC endpoint and used to calculate the Fractional Inhibitory Concentration (FIC) Index to determine any synergistic interaction.
The FIC Index was calculated as follows: […]

Assay [3] has as its system Candida albicans. Put plainly: Culture sensitivity, Patient 7 isolate. Particulars: Patient 7 Candida albicans culture. The source says:
(§1) The patient underwent the standard workup for CRS, sleep disorder, and nasal obstruction, plus our diagnostic skin test and sinus CT scan.

In assay [4] the test system is S. aureus, a bacteria. Nature of the assay: Culture sensitivity, Patient 7 isolate. Particulars: Patient 7 bacterial culture.
From the text: as §1

`CCC(C)n1ncn(-c2ccc(N3CCN(c4ccc(OCC5COC(Cn6cncn6)(c6ccc(Cl)cc6Cl)O5)cc4)CC3)cc2)c1=O` (centres unmarked) [Itraconazole]: the MIC (usually the smallest concentration in the dilution series that meets the test's criterion for growth inhibition) in assay [1] is 1 µg/mL; in assay [2], over 0.5 µg/mL.

On to `CC(=O)N1CCN(c2ccc(OCC3COC(Cn4ccnc4)(c4ccc(Cl)cc4Cl)O3)cc2)CC1` (centres unmarked) [Ketoconazole], for which the MIC in assay [2] was over 4 µg/mL. In assay [3], the Culture sensitivity entry is recorded as “sensitive”.

Regarding `NC[C@H]1O[C@H](O[C@H]2[C@H](O)[C@@H](O[C@H]3O[C@H](CO)[C@@H](O)[C@H](N)[C@H]3O)[C@H](N)C[C@@H]2N)[C@H](N)C[C@@H]1O` [tobramycin], the Culture sensitivity result in assay [4] is listed as “sensitive”.
